Measured values from BigSolDB 2.1.

O=C(N[C@@H](CO)C(=O)O)OCc1ccccc1
solubility (mole fraction)
Conditions | 283.15 K | 288.15 K | 293.15 K | 298.15 K | 303.15 K | 308.15 K | 313.15 K | 318.15 K | 323.15 K
in 2-butanone | 0.0333 | 0.037 | 0.0404 | 0.0456 | 0.052 | 0.0604 | 0.0726 | 0.0946 | 0.115
in acetone | 0.0708 | 0.0762 | 0.0835 | 0.0955 | 0.11 | 0.127 | 0.15 | 0.176 | 0.205
in acetonitrile | 0.00705 | 0.00841 | 0.00993 | 0.0126 | 0.0161 | 0.0213 | 0.0276 | 0.0385 | 0.0625
in ethyl acetate | 0.0143 | 0.0163 | 0.0189 | 0.0217 | 0.0257 | 0.0296 | 0.0353 | 0.0429 | 0.0541
in isobutanol | 0.0221 | 0.0246 | 0.0296 | 0.0365 | 0.0443 | 0.0552 | 0.0665 | 0.0912 | 0.115
in isopropanol | 0.0443 | 0.0505 | 0.0591 | 0.0707 | 0.0841 | 0.103 | 0.123 | 0.152 | 0.185
in methyl acetate | 0.0215 | 0.0262 | 0.0318 | 0.0365 | 0.0418 | 0.0477 | 0.0536 | 0.0635 | 0.0804
in n-butanol | 0.0279 | 0.0313 | 0.0388 | 0.0463 | 0.0562 | 0.067 | 0.0821 | 0.102 | 0.137
in n-pentanol | 0.0265 | 0.0286 | 0.0331 | 0.039 | 0.0455 | 0.0542 | 0.0628 | 0.0854 | 0.112
in n-propanol | 0.0496 | 0.0567 | 0.0645 | 0.0722 | 0.0838 | 0.0956 | 0.11 | 0.127 | 0.175
in sec-butanol | 0.0335 | 0.0385 | 0.0471 | 0.0585 | 0.0715 | 0.0862 | 0.109 | 0.13 | 0.159
in water | 0.00097 | 0.00116 | 0.00133 | 0.00165 | 0.002 | 0.00247 | 0.00309 | 0.00448 | 0.00737
